According to patent US20250136574A1, “SELECTIVE AGENTS TARGETING MYCOBACTERIUM TUBERCULOSIS” (priority 2022, published 2025):
Read-outs that look alike come from different tables or passages of the source.

Tests used:
[1] = Liver microsomal stability, mouse; settings: mouse liver microsomes, n = 1
[2] = Liver microsomal stability, human; settings: human liver microsomes, n = 1
PBS solubility = settings: highest concentration with no detectable precipitate; phosphate-buffered saline
Plasma stability, human = settings: n = 1
[3] = Human plasma protein binding; settings: human, plasma
Plasma stability, mouse = settings: n = 1
[4] = microsomes
[5] = microsomes; remark: listed apart in the source
in vitro = settings: human, plasma
human plasma protein = experiment: Human plasma protein binding; settings: human plasma protein binding

SMILES | liver microsomal stability CLint (μL/min/mg), mouse [1] | liver microsomal stability t1/2 (min), mouse [1] | liver microsomal stability CLint (μL/min/mg), human [2] | liver microsomal stability t1/2 (min), human [2] | PBS solubility (PBS solubility) | plasma stability t1/2 (min), human (Plasma stability, human) | fraction unbound [3] | plasma stability t1/2 (min), mouse (Plasma stability, mouse) | liver microsomal stability CLint (μL/min/mg), mouse [4] | liver microsomal stability CLint (μL/min/mg), human [5] | fraction unbound (in vitro) | plasma protein binding (human plasma protein)
CCCCCCC#Cc1cncc(-c2nnc(SCc3cc([N+](=O)[O-])cc([N+](=O)[O-])c3)n2C)c1 [drawing 140] | 287 µL/min/mg | 4.8 min | 357 µL/min/mg | 3.9 min | <1.6 µM | >480; >480 min | < 0.001 | >480; >480 min |  |  |  | 
CCCCCCC#Cc1cncc(-c2nnc(SCc3ccc([N+](=O)[O-])o3)n2C2CC2)c1 [drawing 141] |  | 2.5 min |  | 1.9 min | 3.1 µM | 259 min |  | 238 min | 546 µL/min/mg | 470 µL/min/mg | < 0.001 | 
CC(=O)CC(c1ccccc1)c1c(O)c2ccccc2oc1=O (centres unmarked) [warfarin] |  |  |  |  |  |  |  |  |  |  |  | >99.9%
